Read-outs that look alike come from different tables or passages of the source.
Tests used:
(h)DAT [1] = target: T1, (h)DAT (Homo sapiens, UniProt Q01959); test: competition binding with [125I]RTI-55 at (h)DAT stably expressed in HEK293 cells; details: mean ± standard error of three independent experiments
T1 construct: expressed in transfected cells

(h)DAT [2] = target: T1, (h)DAT; test: block of [3H]dopamine reuptake in HEK-(h)DAT cells; assay type: cell-based; details: for times more potent than bupropion as DA uptake inhibitor: relative to bupropion
mice [3] = test: locomotor activity, 1-h observation protocol; assay type: in vivo; details: for Emax / ED50: Mus musculus; for Emax: 0.5 h, read-out: Locomotor Activity 1-Hour % Peak Cocaine; for ED50 / Locomotor Activity 1-Hour ED50: dose to produce 50% of the compound's maximal effect, 1-h
mice [4] = test: locomotor activity, 8-h time course protocol; assay type: in vivo; details: for locomotor stimulant activity across the 1-h and 8-h protocols, in words: 1-h and 8-h tests compared; for Emax / ED50: Mus musculus; for Emax: read-out: Locomotor Activity 8-Hour % Peak Cocaine, percent of cocaine's maximal effect, 30 min period of maximum stimulation; for ED50: read-out: Locomotor Activity 8-Hour ED50; for Locomotor Activity 8-Hour Time, min Period, length: duration of locomotor activity; for Locomotor Activity 8-Hour Time, min Period, max: time period of maximum effect; for onset and duration of locomotor activity, in words: mouse, in vivo
(h)NET [5] = target: T2, (h)NET (Homo sapiens, UniProt P23975); test: block of [3H]norepinephrine reuptake in HEK-(h)NET cells; details: read-out: Uptake, IC50 [3H]NE; mean ± standard error of three independent experiments
rats [6] = test: cocaine discrimination (2-lever operant), i.p. administration
rats [7] = test: cocaine discrimination time-course study, oral administration; details: for ED50: Rattus norvegicus, po, 0.75 h; for generalization to cocaine: p.o.
(h)NET [8] = target: T2, (h)NET; test: competition binding with [125I]RTI-55 at (h)NET stably expressed in HEK293 cells; details: read-out: Binding, Ki NET; mean ± standard error of three independent experiments
(h)SERT [9] = target: T3, (h)SERT (Homo sapiens, UniProt P31645); details: read-out: Binding, Ki SERT
T3 construct: expressed in transfected cells; host or cells: HEK293

(h)SERT [10] = target: T3, (h)SERT; test: block of [3H]serotonin reuptake in HEK-(h)SERT cells; assay type: cell-based; details: bound given in μM; read-out: Uptake, IC50 [3H]5-HT
[11] = mean ± standard error of three independent experiments, read-out: Uptake, IC50 [3H]DA
[12] = dose to produce 50% of the compound's maximal effect, 8-h
[13] = Rattus norvegicus, ip, read-out: % cocaine lever responding
[14] = Rattus norvegicus, ip, read-out: Full Generalization ED50
[15] = [3H]DA, read-out: IC50 for DA uptake inhibition

T2 sequence (P23975 whole entry): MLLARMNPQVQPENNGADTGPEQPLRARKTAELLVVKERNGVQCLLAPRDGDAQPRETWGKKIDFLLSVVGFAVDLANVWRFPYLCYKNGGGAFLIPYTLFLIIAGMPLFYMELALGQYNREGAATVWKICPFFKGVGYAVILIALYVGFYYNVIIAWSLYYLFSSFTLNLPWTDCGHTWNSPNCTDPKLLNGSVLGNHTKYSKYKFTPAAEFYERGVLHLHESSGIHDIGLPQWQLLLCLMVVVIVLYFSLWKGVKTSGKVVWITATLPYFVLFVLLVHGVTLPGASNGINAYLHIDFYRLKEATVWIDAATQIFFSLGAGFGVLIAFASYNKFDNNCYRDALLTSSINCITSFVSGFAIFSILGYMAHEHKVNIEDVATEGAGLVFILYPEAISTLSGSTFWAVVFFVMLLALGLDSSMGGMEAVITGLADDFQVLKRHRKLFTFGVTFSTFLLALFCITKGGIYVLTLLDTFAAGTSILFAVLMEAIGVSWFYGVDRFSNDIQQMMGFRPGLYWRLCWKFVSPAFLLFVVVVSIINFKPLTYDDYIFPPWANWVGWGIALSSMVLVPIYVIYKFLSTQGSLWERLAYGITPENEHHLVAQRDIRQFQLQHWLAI
T1 sequence (Q01959 whole entry): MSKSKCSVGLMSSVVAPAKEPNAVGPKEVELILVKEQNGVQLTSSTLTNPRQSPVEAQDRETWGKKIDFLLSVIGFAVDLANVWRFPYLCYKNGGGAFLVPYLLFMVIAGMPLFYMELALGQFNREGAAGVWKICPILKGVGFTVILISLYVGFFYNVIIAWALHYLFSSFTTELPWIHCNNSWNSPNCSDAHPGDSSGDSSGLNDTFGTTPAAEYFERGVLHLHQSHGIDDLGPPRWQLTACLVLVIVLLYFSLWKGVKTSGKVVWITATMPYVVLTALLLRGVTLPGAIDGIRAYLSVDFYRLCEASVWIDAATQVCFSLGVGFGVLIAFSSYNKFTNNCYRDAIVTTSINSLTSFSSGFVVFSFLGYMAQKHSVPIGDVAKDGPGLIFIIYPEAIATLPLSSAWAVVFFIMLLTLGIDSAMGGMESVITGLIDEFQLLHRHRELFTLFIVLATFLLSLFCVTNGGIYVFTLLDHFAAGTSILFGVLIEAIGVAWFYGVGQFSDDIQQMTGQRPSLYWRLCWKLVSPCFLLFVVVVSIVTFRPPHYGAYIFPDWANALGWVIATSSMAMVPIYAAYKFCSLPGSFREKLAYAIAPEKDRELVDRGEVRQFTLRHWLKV
T3 sequence (P31645 whole entry): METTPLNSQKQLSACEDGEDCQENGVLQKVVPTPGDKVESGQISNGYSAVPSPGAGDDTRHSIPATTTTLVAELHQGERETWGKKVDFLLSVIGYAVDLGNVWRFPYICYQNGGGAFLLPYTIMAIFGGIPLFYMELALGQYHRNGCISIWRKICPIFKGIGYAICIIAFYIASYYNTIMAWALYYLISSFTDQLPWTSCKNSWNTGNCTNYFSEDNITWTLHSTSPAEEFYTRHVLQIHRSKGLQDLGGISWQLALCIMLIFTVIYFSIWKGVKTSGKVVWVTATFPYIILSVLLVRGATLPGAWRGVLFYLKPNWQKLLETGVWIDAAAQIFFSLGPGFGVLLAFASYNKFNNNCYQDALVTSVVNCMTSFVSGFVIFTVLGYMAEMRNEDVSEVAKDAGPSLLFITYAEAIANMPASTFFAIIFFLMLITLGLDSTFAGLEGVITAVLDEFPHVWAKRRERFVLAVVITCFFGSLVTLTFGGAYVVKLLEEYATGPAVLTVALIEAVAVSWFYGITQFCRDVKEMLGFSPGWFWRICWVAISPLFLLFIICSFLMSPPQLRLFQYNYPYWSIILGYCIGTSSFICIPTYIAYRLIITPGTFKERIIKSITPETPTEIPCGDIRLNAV

Structure (SMILES) | Ki ((h)DAT [1]) [nM] | IC50 ((h)DAT [2]; [11]) [nM] | times more potent than bupropion as DA uptake inhibitor ((h)DAT [2]) [times] | Emax (mice [3]) [%] | ED50 (mice [3]) [mg/kg] | locomotor stimulant activity across the 1-h and 8-h protocols, in words (mice [4]) | Emax (mice [4]) [%] | ED50 (mice [4]; [12]) [mg/kg] | Locomotor Activity 8-Hour Time, min Period, length (mice [4]) [min] | Locomotor Activity 8-Hour Time, min Period, max (mice [4]) [min] | IC50 ((h)NET [5]) [nM] | responders at 5 mg/kg (rats [6]; [13]) [%] | responders at 10 mg/kg (rats [6]; [13]) [%] | responders at 25 mg/kg (rats [6]; [13]) [%] | ED50 (rats [6]; [14]) [mg/kg] | ED50 (rats [7]) [mg/kg] | Ki ((h)NET [8]) [nM] | IC50 ((h)DAT [2]; [15]) [nM] | Locomotor Activity 1-Hour ED50 (mice [3]) | onset and duration of locomotor activity, in words (mice [4]) | other results
CCCC(NC(C)(C)C)C(=O)c1cccc(Cl)c1 (stereo not shown) [Compound 2p, 2-(N-tert-Butylamino)-3′-chloropentanophenone] | 96 | 33 ± 7 | 29 | 96 | 17.2 | activity similar to cocaine in the 1-h protocol but weakened significantly in the 8-h time-course study | 72 | 16.3 | 210 to 480 | 90 to 120 | 472 | 1 | 33 | 83 | 11.9 | 22.2 | 1170 |  |  |  | generalization to cocaine (rats [7]; 45 min, 50 mg/kg): partial generalization; generalization to cocaine (rats [7]; 45 min, 100 mg/kg): full generalization; generalization to cocaine (rats [7]; 90 min, 100 mg/kg): full generalization; generalization to cocaine (rats [7]; 180 min, 100 mg/kg): partial generalization
CC(NC(C)(C)C)C(=O)c1ccc(Cl)c(Cl)c1 (stereo not shown) [Compound 2j, 2-(N-tert-Butylamino)-3′,4′-dichloropropiophenone] | 472 |  | 3.5 |  |  |  | 61 | 39.1 | 140 to 240 |  | 2100 |  | 0 | 17 |  |  | 5400 | 271 | NE^f | very slow onset of stimulatory activity | Ki ((h)SERT [9]): 1480 nM; responders at 50 mg/kg (rats [6]; [13]): 34%; responders at 100 mg/kg (rats [6]; [13]): 2%; generalization to the cocaine cue, in words (rats [6]; i.p.): did not even show partial generalization
CC(C(=O)c1cccc(Cl)c1)N(C)C (stereo not shown) [Compound 2dd, 2-(N,N-Dimethylamino)-3′-chloropropiophenone] | 4130 |  |  | 100 | 11 | activity similar to cocaine in the 1-h protocol but weakened significantly in the 8-h time-course study | 52 | 13.9 | 180 to 190 | 90 to 120 | 1260 | 0 | 83 | 83 | 4.84 | 5.36 | 3090 | 1530 |  |  | responders at 50 mg/kg (rats [6]; [13]): 10%; ED50 (rats [6]; Rattus norvegicus, ip, read-out: ED50 for cocaine generalization): 4.84 mg/kg
CC(NC(C)(C)C)C(=O)c1ccccc1 (stereo not shown) [Compound 2b, 2-(N-tert-Butylamino)propiophenone] | 5730 | 2310 |  | 120 | 8.1 | strong stimulants in both studies | 98 | 10.5 |  | 0 to 30 | 8700 | 3 | 83 | 83 | 5.65 | 25.6 | 5700 |  |  |  | 
CCCCC(NC(C)(C)C)C(=O)c1cccc(Cl)c1 (stereo not shown) [Compound 2q, 2-(N-tert-Butylamino)-3′-chlorohexanophenone] | 350 |  | 14 | 81 | 13.5 |  | 110 | 13.1 | 40 to 460 | 0 to 30 | 400 | 1 | 67 | 10 | 8.17 | 37.9 | 3190 | 69 |  |  | 
CC(C)CC(NC(C)(C)C)C(=O)c1cccc(Cl)c1 (stereo not shown) [Compound 2t, 2-(N-tert-Butylamino)-3′-chlorophenyl-4-methylpentanophenone] | 140 |  |  |  |  | weak stimulants in both tests |  |  | 320 | 260 to 290 | 360 |  |  |  |  |  | 2300 | 440 | 47.7 mg/kg | very slow onset of stimulatory activity | Ki ((h)SERT [9]; mean ± standard error of three independent experiments): 6200 nM; IC50 ((h)SERT [10]): > 10 µM; Locomotor Activity 1-Hour % Peak Cocaine (mice [3]; maximal effect as percent of cocaine's maximal effect in the first 30 min): 62%; Locomotor Activity 8-Hour ED50 (mice [4]; [12]): 22.1 mg/kg; Locomotor Activity 8-Hour % Peak Cocaine (mice [4]; percent of cocaine's maximal effect, 30 min period of maximum stimulation): 35%
